Assay [1] concerns the target T1, EGFR L858R/T790M/C797S (BaF3-LTC cells) (Homo sapiens, UniProt P00533, C797S/L858R/T790M).
T1 construct: expressed in transfected cells; host or cells: BaF3
Nature of the assay: EGFR degradation HTRF assay, BaF3-LTC cells. The following applies: BaF3-LTC cells; EGFR degradation, IC50 (DC50) from curve fit; read-out: DC50(nM) BaF3-LTC. The format is cell-based. The essentials: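 EGFR remaining after a 16 h, 37 °C exposure (8 doses, 5-fold steps from 10 uM final, 0.2% DMSO) was quantified by HTRF antibodies in cell lysate. Percent inhibition relative to DMSO control was fitted by four-parameter logistic to give DC50; Dmax denotes maximal degradation.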
For orientation: TR-FRET usually uses a lanthanide donor and a delayed reading to cut background.

The subject of assay [2] is EGFR Del19/T790M/C797S (H1975-clone #28). The assay is described as follows: EGFR degradation HTRF assay, H1975-clone #28 DTC cells. The format is cell-based. The following applies: H1975 # 28 DTC cells; for DC50: EGFR degradation, IC50 (DC50) from curve fit, read-out: DC50(nM) H1975 # 28 DTC; for Dmax (%) H1975 # 28 DTC: maximum percentage of inhibition (degradation). The essentials: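 Read-out is an HTRF EGFR signal (337 nm excitation, 665/620 nm) from lysates of mutant-EGFR H1975 clones in which only the exogenous EGFR survives knockout. Treatment ran 16h at 37° C. from 10 uM final downward in 5-fold steps. DC50 comes from a logistic fit and Dmax is the maximal degradation.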

These results are taken from US20230265116A1, “DEGRADATION OF (EGFR) BY CONJUGATION OF EGFR INHIBITORS WITH E3 LIGASE LIGAND AND METHODS OF USE” (BEIGENE, LTD., priority 2020, published 2023).

T1 sequence (P00533 25-1210 T790M/C797S/L858R): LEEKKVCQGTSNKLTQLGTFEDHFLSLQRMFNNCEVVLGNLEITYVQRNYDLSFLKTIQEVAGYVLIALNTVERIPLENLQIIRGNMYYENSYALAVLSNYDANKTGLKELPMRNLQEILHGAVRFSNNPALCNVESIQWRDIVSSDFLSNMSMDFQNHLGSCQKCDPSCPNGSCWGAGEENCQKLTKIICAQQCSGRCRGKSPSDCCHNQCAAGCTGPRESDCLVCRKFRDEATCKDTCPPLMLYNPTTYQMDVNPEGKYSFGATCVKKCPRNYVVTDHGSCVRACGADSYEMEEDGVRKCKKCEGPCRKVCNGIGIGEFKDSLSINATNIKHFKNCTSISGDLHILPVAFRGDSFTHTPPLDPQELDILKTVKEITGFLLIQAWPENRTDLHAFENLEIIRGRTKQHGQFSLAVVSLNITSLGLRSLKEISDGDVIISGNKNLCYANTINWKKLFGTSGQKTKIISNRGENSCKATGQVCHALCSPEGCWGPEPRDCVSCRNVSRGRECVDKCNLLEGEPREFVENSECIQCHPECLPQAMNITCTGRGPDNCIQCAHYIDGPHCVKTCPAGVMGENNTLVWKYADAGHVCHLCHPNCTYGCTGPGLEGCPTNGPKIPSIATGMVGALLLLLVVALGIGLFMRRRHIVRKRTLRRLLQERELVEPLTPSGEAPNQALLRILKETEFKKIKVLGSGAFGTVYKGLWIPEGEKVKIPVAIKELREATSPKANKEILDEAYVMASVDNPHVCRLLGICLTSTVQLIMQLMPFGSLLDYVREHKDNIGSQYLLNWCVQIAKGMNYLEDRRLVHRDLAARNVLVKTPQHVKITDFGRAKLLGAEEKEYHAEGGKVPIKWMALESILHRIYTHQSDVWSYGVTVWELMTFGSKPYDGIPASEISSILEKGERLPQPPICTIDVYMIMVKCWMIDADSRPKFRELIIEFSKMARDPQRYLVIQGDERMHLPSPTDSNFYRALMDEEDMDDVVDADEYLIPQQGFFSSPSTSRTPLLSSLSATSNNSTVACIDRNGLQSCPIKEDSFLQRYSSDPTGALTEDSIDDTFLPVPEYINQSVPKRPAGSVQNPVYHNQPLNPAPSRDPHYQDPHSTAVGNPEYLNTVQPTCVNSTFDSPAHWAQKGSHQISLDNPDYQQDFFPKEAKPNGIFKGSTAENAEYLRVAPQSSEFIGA

By DC50 is commonly meant the concentration giving 50% degradation. Consider `CCOc1cc(N2CCC(N3CCN(CCc4cccc5c4n(CC)c(=O)n5C4CCC(=O)NC4=O)CC3)CC2)c(CC)cc1Nc1ncc(Br)c(Nc2ccc3nc(CC)ncc3c2P(C)(C)=O)n1` (stereo not drawn) [Example 737, 3-(4-(2-(4-(1-(4-((5-bromo-4-((5-(dimethylphosphoryl)-2-ethylquinazolin-6-yl)amino)pyrimidin-2-yl)amino)-5-ethoxy-2-ethylphenyl)piperidin-4-yl)piperazin-1-yl)ethyl)-3-ethyl-2-oxo-2,3-dihydro-1H-benzo[d]imidazol-1-yl)piperidine-2,6-dione], for which, in assay [1], the half-maximal degradation concentration (DC50) was found to be 3.72 nM. In assay [2], the 50% degradation concentration (DC50) was determined as 0.944 nM and the “Dmax (%) H1975 # 28 DTC” value stood at 78.21%.
On to `CCOc1cc(N2CCC(N3CCN(CCc4cc(F)c([C@H]5CCC(=O)NC5=O)c(F)c4)CC3)CC2)c(CC)cc1Nc1ncc(Br)c(Nc2ccc3nc(C)ncc3c2P(C)(C)=O)n1` [Example 738, (R)-3-(4-(2-(4-(1-(4-((5-bromo-4-((5-(dimethylphosphoryl)-2-methylquinazolin-6-yl)amino)pyrimidin-2-yl)amino)-5-ethoxy-2-ethylphenyl)piperidin-4-yl)piperazin-1-yl)ethyl)-2,6-difluorophenyl)piperidine-2,6-dione], for which, in assay [1], the half-maximal degradation concentration (DC50) came to 6.73 nM. In addition, in assay [2], the half-maximal degradation concentration (DC50) turned out to be 0.64 nM and the “Dmax (%) H1975 # 28 DTC” value is listed as 84.3%.
In the case of `CCc1cc(Nc2ncc(Br)c(Nc3ccc4nc(C)ncc4c3P(C)(C)=O)n2)c(OC)cc1N1CCC(N2CCN(CCc3cc(F)c([C@H]4CCC(=O)NC4=O)c(F)c3)CC2)CC1` [Example 739, (R)-3-(4-(2-(4-(1-(4-((5-bromo-4-((5-(dimethylphosphoryl)-2-methylquinazolin-6-yl)amino)pyrimidin-2-yl)amino)-2-ethyl-5-methoxyphenyl)piperidin-4-yl)piperazin-1-yl)ethyl)-2,6-difluorophenyl)piperidine-2,6-dione], the DC50 in assay [1] was found to be 2.89 nM. Further, in assay [2], the DC50 amounted to 0.614 nM and the “Dmax (%) H1975 # 28 DTC” value came to 85.55%.
For `CCc1cc(Nc2ncc(Br)c(Nc3ccc4nc(C)ncc4c3P(C)(C)=O)n2)c(OC)cc1N1CCC(N2CCN(C(=O)[C@H]3CN(c4cc(F)c([C@H]5CCC(=O)NC5=O)c(F)c4)CC3(C)C)CC2)CC1` [Example 740, (R)-3-(4-((R)-4-(4-(1-(4-((5-bromo-4-((5-(dimethylphosphoryl)-2-methylquinazolin-6-yl)amino)pyrimidin-2-yl)amino)-2-ethyl-5-methoxyphenyl)piperidin-4-yl)piperazine-1-carbonyl)-3,3-dimethylpyrrolidin-1-yl)-2,6-difluorophenyl)piperidine-2,6-dione], the DC50 in assay [1] was 4.11 nM. In addition, in assay [2], the DC50 is 0.717 nM and the “Dmax (%) H1975 # 28 DTC” value worked out at 87.27%.
For `CCc1cc(Nc2ncc(Br)c(Nc3ccc4nc(C5CC5)ccc4c3P(C)(C)=O)n2)c(OC)cc1N1CCC(N2CCN(CCc3cc(F)c([C@H]4CCC(=O)NC4=O)c(F)c3)CC2)CC1` [Example 741, (R)-3-(4-(2-(4-(1-(4-((5-bromo-4-((2-cyclopropyl-5-(dimethylphosphoryl)quinolin-6-yl)amino)pyrimidin-2-yl)amino)-2-ethyl-5-methoxyphenyl)piperidin-4-yl)piperazin-1-yl)ethyl)-2,6-difluorophenyl)piperidine-2,6-dione], in that order: 11.2 nM, 0.761 nM and 80.67%.
In the case of `CCOc1cc(N2CCC(N3CCN(CCc4cc(F)c(F)c5c4n(CC)c(=O)n5C4CCC(=O)NC4=O)CC3)CC2)c(CC)cc1Nc1ncc(Br)c(Nc2ccc3nc(CC)ccc3c2P(C)(C)=O)n1` (stereo not drawn) [Example 742, 3-(4-(2-(4-(1-(4-((5-bromo-4-((5-(dimethylphosphoryl)-2-ethylquinolin-6-yl)amino)pyrimidin-2-yl)amino)-5-ethoxy-2-ethylphenyl)piperidin-4-yl)piperazin-1-yl)ethyl)-3-ethyl-6,7-difluoro-2-oxo-2,3-dihydro-1H-benzo[d]imidazol-1-yl)piperidine-2,6-dione], the DC50 in assay [1] came to 36.5 nM; in assay [2] it was 3.52 nM. Also, the “Dmax (%) H1975 # 28 DTC” value in assay [2] came out at 68.91%.
